Data: patent US20070134233A1, “Compositions and methods relating to organ-, tissue-, and cell-specific antibodies” (Phylonix Pharmaceuticals, Inc., priority 2004, published 2007)
Entries after “also recorded” stand apart in the source; their conditions may differ.

Key:
[1] = test system: activated endothelial cells in the zebrafish embryo; test: Quantitative in vivo EC proliferation assay (whole animal Phy-V002 ELISA); settings: ~20 hpf embryos treated for 28 hours
Experimental: Quantitative in vivo EC proliferation assay: Embryos were fixed by Dent's fixative (DMSO/methanol=1/3) at room temperature (23+2° C.) for 3 hours, dehydrated to 100% EtOH following standard dehydration procedures. Embryos were then permeabilized, rehydrated, treated with horseradish peroxidase (HRP) suppressor to inhibit endogenous HRP. After treatment with 1 M NH4Cl at room temperature for 3 hours to quench autofluorescence, embryos were then blocked and incubated with Phy-V002 mAb following a standard procedure (see Westerfield, supra). After washing with PBST, embryos were incubated with HRP-conjugated secondary antibody. QuantaBlu (Pierce) was used as the fluorescence enzyme substrate; the stained EC was quantified by measuring the fluorescence units of the enzymatic end product at 315-340 nm (excitation)/370-470 nm (emission) using SPECTRAmax Gemini microplate reader (Molecular Devices).
Drug effect on EC proliferation was calculated by the following formula: [formula]

[2] = test system: angiogenic vessel development in zebrafish embryos; test: Whole mount immunostaining with Phy-V001 of drug-treated embryos; assay type: in vivo; settings: for vasculature compared to controls: various concentrations; for vasculature compared to controls / ISV staining by Phy-V001: at 3 dpf; for ISV staining by Phy-V001: 48 hours
[3] = test system: angiogenic vessel growth in zebrafish embryos; test: Quantitative in vivo microplate assay using Phy-V001 mAb; settings: for effect on angiogenic vessel development (discussion summary): 2 dpf and 3 dpf stages; for Vessel Reduction (%) Zebrafish: single dosing, Concentration SU5416 2 μM, Flavopiridol 3 μM
zebrafish embryos [4] = test: Embryo death and body malformation after drug treatment; assay type: in vivo
Experimental: Assay validation with small molecule drugs: Using the whole mount immunostaining technique described supra, several small molecule drugs were tested. […] Flavopiridol is a cyclin-dependent kinase inhibitor known to inhibit cell proliferation (Senderowicz, Invest. New Drugs 17:313-20, 1999). COL-1 and COL-3 are inhibitors of matrix metalloproteases (MMPs), which are known to play a crucial role in vascular endothelial cell migration (Seftor et al. 2001). During early embryo development (˜12 hpf), many structures including the notochord, the somites, and the heart are beginning to form and these structures directly affect both vasculargenesis and angiogenesis. After 20 hpf, since the DA and the PCV are fully formed, drug effects on vessel formation are less likely to be secondary effects (indirect effects due to damage to the notochord, somites, or heart). Therefore, ˜1 dpf was chosed as the time point to initiate drug treatment. Embryos were incubated with varying concentrations of each drug continuously for 48 hours. Drug effects were examined at 2 dpf and 3 dpf.

[5] = test system: vessel formation in zebrafish embryos; test: In vivo vessel formation assay (Phy-V002 staining); settings: 2 dpf embryos
Excerpt: In vivo vesselformation assay: Embryos were processed as described in “In vivo EC migration Assay,” supra, and examined by fluorescence microscopy. Images of stained embryos were captured by CCD camera and analyzed by Adobe Photoshop software. Higher magnification (10×) images of control and drug treated embryos at the region where vessel defects were observed were quantitated by morphometric analysis (Signal (S)=[area (pixel) X signal intensity]) using Scion Image program. Percent (%) inhibition in vessel formation can be calculated by the following formula: [formula] Results 1. Quantitative in Vivo EC Proliferation Assay

Mouse Tumor = settings: 12 mg/ml/day, dosing frequency 18; cited from earlier work
EC = settings: serum of patients treated with flavopiridol; cited from earlier work
zebrafish embryos [6] = test: Embryo growth inhibition by body length; assay type: in vivo; settings: 5 μM for 4 days
Experimental: Drugs cause growth retardation: Many drugs cause growth inhibition. […] 1 dpf embryos are treated with identified “hit” drugs at various concentrations for 4 days. Body length is measured at 5 dpf and plotted against drug concentration. Normal untreated and 0.1% DMSO treated embryos are used as controls. At least 10 embryos are used for each condition.

For COc1cc2c(cc1O)CC[C@@H]1[C@@H]2CC[C@]2(C)[C@@H](O)CC[C@@H]12 [2-methoxyestradiol], the “% inhibition in EC proliferation, dose response” value [1] was “% inhibition in EC proliferation increasing proportionally with drug concentration”.
For NC(=O)C1=C(O)C[C@@H]2C[C@@H]3Cc4cccc(O)c4C(=O)C3=C(O)[C@]2(O)C1=O [COL-3], the “Change in vessel pattern” value ([2]; at 2 dpf, concentration not given) was “caused a loss of a few ISVs”, the “vasculature compared to controls” value [2] was “appeared unchanged” and the “maximum inhibition of angiogenic vessel growth” value ([3]; 5 μM, at 2 dpf) was roughly 39%. For the same molecule, the “inhibition on angiogenic vessel development” value ([3]; 1 to 10 μM, at 3 dpf) was roughly 25% and the “effect on angiogenic vessel development (discussion summary)” value [3] was “significant inhibitory effect”.
For Cc1cc(C)c(/C=C2\C(=O)Nc3ccccc32)[nH]1 [SU5416], the “body formation of surviving embryos” value (zebrafish embryos [4]; 20 μM, at 2 dpf) was “truncated body formation”, the “vessel formation (cranial vessels and ISVs)” value ([5]; 1 μM) was “partially missing; also recorded: abnormal when compared to control embryos” and the “vessel formation (cranial vessels and ISVs)” value ([5]; 2.5 μM and higher) was “nearly completely absent”. For the same molecule, the “Inhibition of angiogenic vessel development (Phy-V001 staining)” value (“Inhibition … (Phy-V001 staining)” for short) ([2]; 10 μM, 24 hours, at 2 dpf) was “inhibitory effect was not obvious”, the “Inhibition … (Phy-V001 staining)” value ([2]; 15 μM, 24 hours, at 2 dpf) was “dramatic decrease in Phy-V001 staining” and the “Inhibition … (Phy-V001 staining)” value ([2]; 20 μM, at 2 dpf, surviving embryos) was “ISVs were barely detectable”. The “ISV staining by Phy-V001” value ([2]; 10 and 15 μM) was “staining was weaker”, the “inhibition in angiogenic vessel growth” value ([3]; 48 hours treatment, at 3 dpf, surviving embryos) was “No significant inhibition” and the inhibition at 15 µM ([3]; Danio rerio, 15 μM, at 2 dpf, read-out: maximum inhibition in vessel growth) was roughly 40.5%. For the same molecule, the “Vessel Reduction (%) Zebrafish” value [3] was “˜40.5%” and the “Vessel Reduction (%) Mouse Tumor” value (Mouse Tumor) was “˜42%”.
With Cc1[nH]c(/C=C2\C(=O)Nc3ccc(Br)cc32)c(C)c1CCC(=O)O [SU9518] the “Change in vessel development compared to control” value ([2]; 0.1 μM to 100 μM, at 2 dpf) was “did not cause a change in vessel development”, the “vasculature compared to controls” value [2] was “appeared unchanged” and the angiogenic vessel inhibition ([3]; 0.1 μM to 100 μM, at 2 dpf) was “did not result in any angiogenic vessel inhibition”. The “effect on angiogenic vessel development (discussion summary)” value [3] was “did not have any effect”.
For CN1CC[C@H](c2c(O)cc(O)c3c(=O)cc(-c4ccccc4Cl)oc23)[C@H](O)C1 [flavopiridol], the “Vessel Reduction (%) EC Proliferation” value (EC) is given as “˜32%”, the “Vessel Reduction (%) EC Proliferation, range” value (EC) is given as “(8-70% range)” and the “body formation of surviving embryos” value (zebrafish embryos [4]; 5 μM, at 2 dpf) is given as “truncated body formation”. The embryos died (zebrafish embryos [4]; 5 μM, at 2 dpf) was roughly 16%, the embryos died (zebrafish embryos [4]; 7 μM, at 2 dpf) was roughly 20% and the embryos died (zebrafish embryos [4]; 7 μM, at 3 dpf) was “All the 7 μM flavopiridol treated embryos died”. For the same molecule, the “overall embryo growth, body length” value (zebrafish embryos [6]) was “caused inhibition of overall embryo growth”, the “Inhibition … (Phy-V001 staining)” value ([2]; 1 μM, at 2 dpf) was “inhibitory effect was not obvious” and the “Inhibition … (Phy-V001 staining)” value ([2]; 3 μM, at 2 dpf) was “ISV staining in the trunk region decreased”. For the same molecule, the “Inhibition … (Phy-V001 staining)” value ([2]; 5 μM, at 2 dpf, surviving embryos) was “dramatic decrease in ISV staining”, the “Inhibition … (Phy-V001 staining)” value ([2]; 7 μM, at 2 dpf, surviving embryos) was “decreased staining in ISVs” and the “ISV staining by Phy-V001” value ([2]; 1, 3, and 5 μM) was “staining intensity appeared weaker”. For the same molecule, the inhibition at 1 µM ([3]; Danio rerio, 1 μM, at 2 dpf) was 13%, the inhibition at 3 µM ([3]; Danio rerio, 3 μM, at 2 dpf, read-out: maximum inhibition of angiogenic vessel growth) was roughly 27% and the inhibition at 5 µM ([3]; Danio rerio, 5 μM, at 3 dpf) was roughly 17%. For the same molecule, the “Vessel Reduction (%) Zebrafish” value [3] was “˜27%” and the “% inhibition in EC proliferation, dose response” value [1] was “% inhibition in EC proliferation increasing proportionally with drug concentration”.
